Each structure is given as a SMILES string. Values joined by “and” are separate entries in the source; they are usually repeats but may differ in a detail not shown here. Equal entries are not always repeated.

One assay addresses T1, Liver GK (Homo sapiens, UniProt P35557).
T1 construct: (His)6; made in house; host or cells: Escherichia coli
T1 sequence (P35557 1-466 isoform P35557-2): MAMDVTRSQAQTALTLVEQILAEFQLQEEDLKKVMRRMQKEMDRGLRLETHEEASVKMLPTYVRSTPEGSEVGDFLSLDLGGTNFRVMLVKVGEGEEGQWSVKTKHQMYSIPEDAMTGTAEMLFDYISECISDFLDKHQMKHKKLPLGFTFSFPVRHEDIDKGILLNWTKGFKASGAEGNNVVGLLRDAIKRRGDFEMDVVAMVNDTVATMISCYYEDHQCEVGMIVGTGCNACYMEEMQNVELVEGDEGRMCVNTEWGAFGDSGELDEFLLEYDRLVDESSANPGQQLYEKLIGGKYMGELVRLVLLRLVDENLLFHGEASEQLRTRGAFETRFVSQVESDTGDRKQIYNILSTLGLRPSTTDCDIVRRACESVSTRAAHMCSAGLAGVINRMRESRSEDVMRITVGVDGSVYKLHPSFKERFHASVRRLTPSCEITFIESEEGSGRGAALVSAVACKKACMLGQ
The assay can be described thus: Glucokinase enzyme assay, liver GK. The format is biochemical. The conditions noted are these: for activation at 50 µM: percentage increase in GK activity above vehicle control, compound 50 μM, 12 mM glucose; for EC50: concentration that produces 50% activation above the vehicle control; for EC100%: concentration that produces 100% activation above the vehicle control. The source says:
(§1) An enzymatic Glucokinase (GK) assay using purified recombinant human liver/pancreas enzyme was used to evaluate the effects of potential small molecule modulators.
(§2) In this assay, GK catalyzes glucose phosphorylation in the presence of ATP. The product of this reaction, glucose-6-phosphate, was then oxidized by an excess of glucose-6-phosphate dehydrogenase to produce gluconate-6-phosphate with concomitant reduction of nicotinamide adenine dinucleotide (NAD). […] Human GK (Liver/Pancreas) was expressed in Escherichia coli as a (His) 6-tagged fusion protein and was purified by metal chelate affinity chromatography. The assay was performed in a final incubation volume of 80 μl in a 96-well clear low UV absorption plates. The incubation mixture consisted of 25 mM HEPES, 2 mM MgSO4, 1 mM dithiothreotol (DTT), 1 mg/mL bovine serum albumin (BSA), 1 mM ATP, 1 mM NAD, and 12 mM glucose, 10 units per mL glucose-6-phosphate dehydrogenase, and +/−300 ng per mL GK. For determination of the affinity (Km) and Vmax, different concentrations of glucose ranging from 0.5 mM to 40 mM were used in the assay; see Grimsby, J., Sarabu, R.; Grippo, J. F.; et. al. Science 2003, 301, 370-373. Production of reduced NAD (Nicotinamide Adenine Dinucleotide) was measured as changes in absorption at 340 nm in 96-well plate reader (Envision model #2101 Multilabel Plate reader). % Activation @ 50 μM was calculated as the percentage increase in GK activity above the vehicle control with the effective concentration of the compound being 50 μM. EC50% (μM) was calculated as the effective concentration of the compound that produces 50% activation above the vehicle control, and EC100% (μM) was calculated as the effective concentration of the compound that produces 100% activation above the vehicle control.

The target in the next assay is T2, Pancreas GK (Homo sapiens, UniProt P35557).
T2 construct: (His)6; made in house; host or cells: Escherichia coli
T2 sequence (P35557 1-465): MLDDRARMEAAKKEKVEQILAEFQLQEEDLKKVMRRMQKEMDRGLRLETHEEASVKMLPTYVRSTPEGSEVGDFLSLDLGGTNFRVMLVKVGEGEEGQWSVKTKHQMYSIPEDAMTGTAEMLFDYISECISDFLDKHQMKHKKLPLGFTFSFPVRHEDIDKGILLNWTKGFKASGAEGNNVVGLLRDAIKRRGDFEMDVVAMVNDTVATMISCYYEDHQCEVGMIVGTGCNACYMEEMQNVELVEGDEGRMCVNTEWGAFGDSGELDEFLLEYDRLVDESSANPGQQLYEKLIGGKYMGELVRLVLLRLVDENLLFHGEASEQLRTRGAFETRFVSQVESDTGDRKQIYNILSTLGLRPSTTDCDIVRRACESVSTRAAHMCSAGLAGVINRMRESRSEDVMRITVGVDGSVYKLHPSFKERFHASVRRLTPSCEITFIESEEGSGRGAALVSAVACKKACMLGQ
The assay can be described thus: Glucokinase enzyme assay, pancreas GK. The format is biochemical. The conditions noted are these: for activation at 50 µM: percentage increase in GK activity above vehicle control, compound 50 μM, 12 mM glucose; for EC50: concentration that produces 50% activation above the vehicle control; for EC100%: concentration that produces 100% activation above the vehicle control.
Description: as §1, §2

With `COc1ccc(CN2C(=O)C(C)=C(C)[C@H]2S[C@H](C)C(=O)Nc2ccccn2)cc1` (stereo in doubt) [Compound 32, 2-[1-(4-Methoxy-benzyl)-3,4-dimethyl-5-oxo-2,5-dihydro-1H-pyrrol-2-ylsulfanyl]-N-pyridin-2-yl-propionamide], the activation at 50 µM on Liver GK amounted to 37%; at Pancreas GK, 24%.

In the case of `COc1ccc(CN2C(=O)C(C)=C(C)C2SCC(=O)Nc2nccs2)cc1` (stereo not shown) [Compound 2, 2[1-(4-Methoxy-benzyl)-3,4-dimethyl-5-oxo-2,5-dihydro-1H-pyrrol-2-ylsulfanyl]-N-thiazol-2-yl-acetamide], on Liver GK, the EC50 stood at 9.4 µM and the activation at 50 µM worked out at 169%.

For the compound `COc1ccc(CN2C(=O)C(c3ccccc3)=CC2SCC(=O)Nc2nccs2)cc1` (stereo not shown) [Compound 3, 2-[1-(4-Methoxy-benzyl)-5-oxo-4-phenyl-2,5-dihydro-1H-pyrrol-2-ylsulfanyl]-N-thiazol-2-yl-acetamide], the activation at 50 µM on Liver GK came to 64.9%.

For the compound `COC(=O)c1ccc(NC(=O)CSC2C(c3ccccc3)=C(c3ccccc3)C(=O)N2Cc2ccc(OC)cc2)nc1` (stereo not shown) [Compound 4], on Liver GK, the EC50 was 19.8 µM and 24.5 µM; the “EC100%” value is 37.3 µM and 30.4 µM.

In the case of `COc1ccc(CN2C(=O)C(C)=C(C)C2SCC(=O)Nc2ccccn2)cc1` (stereo not shown) [Compound 5, 2-[1-(4-Methoxy-benzyl)-3,4-dimethyl-5-oxo-2,5-dihydro-1H-pyrrol-2-ylsulfanyl]-N-pyridin-2-yl-acetamide], at Liver GK, the EC50 worked out at 3.3 µM, the “EC100%” value was 8.3 µM and the activation at 50 µM stood at 222%.

On to `COc1ccc(CN2C(=O)C(C)=C(C)C2SCC(=O)Nc2cnccn2)cc1` (stereo not shown) [Compound 6, 2-[1-(4-Methoxy-benzyl)-3,4-dimethyl-5-oxo-2,5-dihydro-1H-pyrrol-2-ylsulfanyl]-N-pyrazin-2-yl-acetamide], for which, at Liver GK, the EC50 was found to be 6.3 µM, the “EC100%” value came out at 20.1 µM and the activation at 50 µM was determined as 175%.

`CCOC(=O)Cc1csc(NC(=O)CSC2C(C)=C(C)C(=O)N2Cc2ccc(OC)cc2)n1` (stereo not shown) [Compound 7, (2-{2-[1-(4-Methoxy-benzyl)-3,4-dimethyl-5-oxo-2,5-dihydro-1H-pyrrol-2-ylsulfanyl]-acetylamino}-thiazol-4-yl)-acetic acid ethyl ester]: on Liver GK, the EC50 was determined as 11.6 µM, the “EC100%” value turned out to be 38.9 µM and the activation at 50 µM worked out at 114%.

On to `COc1ccc(CN2C(=O)C(C)=C(C)C2SCC(=O)Nc2ccc(Cl)cn2)cc1` (stereo not shown) [Compound 8, N-(5-Chloro-pyridin-2-yl)-2-[1-(4-methoxy-benzyl)-3,4-dimethyl-5-oxo-2,5-dihydro-1H-pyrrol-2-ylsulfanyl]-acetamide], for which, at Liver GK, the EC50 came to 2.72 µM, the “EC100%” value worked out at 9.77 µM and the activation at 50 µM was 169%.

On to `COc1ccc(CN2C(=O)C(C)=C(C)C2SCC(=O)Nc2ccc(C)cn2)cc1` (stereo not shown) [Compound 9, 2-[1-(4-Methoxy-benzyl)-3,4-dimethyl-5-oxo-2,5-dihydro-1H-pyrrol-2-ylsulfanyl]-N-(5-methyl-pyridin-2-yl)-acetamide], for which, on Liver GK, the EC50 turned out to be 1.4 µM, the “EC100%” value is 4.9 µM and the activation at 50 µM amounted to 215%.

Regarding `COc1ccc(CN2C(=O)C(C)=C(C)C2SCC(=O)Nc2ccccn2)c(OC)c1` (stereo not shown) [Compound 10, 2-[1-(2,4-Dimethoxy-benzyl)-3,4-dimethyl-5-oxo-2,5-dihydro-1H-pyrrol-2-ylsulfanyl]-N-pyridin-2-yl-acetamide], on Liver GK, the EC50 came to 12.2 µM, the “EC100%” value was 39.92 µM and the activation at 50 µM was determined as 128%.

For `COc1ccc(CN2C(=O)C(C)=C(C)C2SCC(=O)Nc2ccccn2)cc1OC` (stereo not shown) [Compound 11, 2-[1-(3,4-Dimethoxy-benzyl)-3,4-dimethyl-5-oxo-2,5-dihydro-1H-pyrrol-2-ylsulfanyl]-N-pyridin-2-yl-acetamide], on Liver GK, the EC50 worked out at 2.41 µM, the “EC100%” value was 5.83 µM and the activation at 50 µM was 243%.

Turning to `CC1=C(C)C(SCC(=O)Nc2ccccn2)N(Cc2ccc(F)cc2)C1=O` (stereo not shown) [Compound 12, 2-[1-(4-Fluoro-benzyl)-3,4-dimethyl-5-oxo-2,5-dihydro-1H-pyrrol-2-ylsulfanyl]-N-pyridin-2-yl-acetamide], at Liver GK, the EC50 is 2.9 µM, the “EC100%” value was 8.72 µM and the activation at 50 µM stood at 198%.

On to `COc1ccc(CN2C(=O)C(C)=CC2SCC(=O)Nc2ccccn2)cc1` (stereo not shown) [Compound 15, 2-[1-(4-Methoxy-benzyl)-4-methyl-5-oxo-2,5-dihydro-1H-pyrrol-2-ylsulfanyl]-N-pyridin-2-yl-acetamide], for which, on Liver GK, the EC50 turned out to be 10 µM, the “EC100%” value is 37.08 µM and the activation at 50 µM is 122%.

In the case of `CC1=C(C)C(SCC(=O)Nc2ccccn2)N(Cc2ccc(OC(F)F)cc2)C1=O` (stereo not shown) [Compound 16, 2-[1-(4-Difluoromethoxy-benzyl)-3,4-dimethyl-5-oxo-2,5-dihydro-1H-pyrrol-2-ylsulfanyl]-N-pyridin-2-yl-acetamide], on Liver GK, the EC50 is 6.76 µM, the “EC100%” value was determined as 17.01 µM and the activation at 50 µM was found to be 166%.

As to `COc1ccc(CN2C(=O)C(C)=C(C)C2SCC(=O)Nc2ccc(C(=O)O)cn2)cc1` (stereo not shown) [Compound 33], the EC50 at Pancreas GK is 2.5 µM and 1.6 µM.

For `CC1=C(C)C(SCC(=O)Nc2ccccn2)N(Cc2ccc(N(C)C)cc2)C1=O` (stereo not shown) [Compound 34, 2-[1-(4-Dimethylamino-benzyl)-3,4-dimethyl-5-oxo-2,5-dihydro-1H-pyrrol-2-ylsulfanyl]-N-pyridin-2-yl-acetamide], on Pancreas GK, the EC50 came to 2.5 µM, the “EC100%” value worked out at 12 µM and the activation at 50 µM came out at 163%.

`COC(=O)c1ccc(NC(=O)CSC2C(C)=C(C)C(=O)N2Cc2ccc(F)cc2)nc1` (stereo not shown) [Compound 35, 6-{2-[1-(4-Fluoro-benzyl)-3,4-dimethyl-5-oxo-2,5-dihydro-1H-pyrrol-2-ylsulfanyl]-acetylamino}-nicotinic acid methyl ester]: at Pancreas GK, the EC50 was found to be 0.98 µM, the “EC100%” value came out at 5.3 µM and the activation at 50 µM is 156%.

Take `COC(=O)c1ccc(NC(=O)CSC2C(C)=C(C)C(=O)N2Cc2ccc(OC(F)F)cc2)nc1` (stereo not shown) [Compound 36, 6-{2-[1-(4-Difluoromethoxy-benzyl)-3,4-dimethyl-5-oxo-2,5-dihydro-1H-pyrrol-2-ylsulfanyl]-acetylamino}-nicotinic acid methyl ester]: on Pancreas GK, the EC50 was found to be 2.5 µM and the “EC100%” value is 18 µM.

Turning to `COC(=O)c1ccc(NC(=O)CSC2C(C)=C(C)C(=O)N2Cc2ccc3c(c2)CCO3)nc1` (stereo not shown) [Compound 37], at Pancreas GK, the EC50 was 1.09 µM, the “EC100%” value was found to be 1.09 µM and the activation at 50 µM came to 209%.

Regarding `COC(=O)c1ccc(NC(=O)CSC2C(C)=C(C)C(=O)N2Cc2cccs2)nc1` (stereo not shown) [Compound 38, 6-[2-(3,4-Dimethyl-5-oxo-1-thiophen-2-ylmethyl-2,5-dihydro-1H-pyrrol-2-ylsulfanyl)-acetylamino]-nicotinic acid methyl ester], on Pancreas GK, the EC50 amounted to 1.09 µM and the “EC100%” value was determined as 8.9 µM.

Regarding `COC(=O)c1ccc(NC(=O)CSC2C(C)=C(C)C(=O)N2Cc2ccc(OC)c(OC)c2)nc1` (stereo not shown) [Compound 39], at Pancreas GK, the EC50 worked out at 1.14 µM and the “EC100%” value came to 5.3 µM.

As to `COC(=O)c1ccc(NC(=O)CSC2C(C)=C(C)C(=O)N2Cc2cc(OC)cc(OC)c2)nc1` (stereo not shown) [Compound 40], at Pancreas GK, the EC50 was 2.3 µM and the “EC100%” value turned out to be 19 µM.
